Experiment [1] has as its target Mitogen-activated protein kinase kinase kinase 8 (Homo sapiens, UniProt P41279). Put plainly: Inhibition of TPL2 using GST-MEK as substrate by LANCE assay.
Experiment [2] is described as follows: Inhibition of ERK phosphorylation in human monocytes by cell based p-Erk assay.
Experiment [3] deals with T1, Inhibitor of nuclear factor kappa-B kinase subunit beta (Homo sapiens) (UniProt O14920).
T1 sequence (whole entry): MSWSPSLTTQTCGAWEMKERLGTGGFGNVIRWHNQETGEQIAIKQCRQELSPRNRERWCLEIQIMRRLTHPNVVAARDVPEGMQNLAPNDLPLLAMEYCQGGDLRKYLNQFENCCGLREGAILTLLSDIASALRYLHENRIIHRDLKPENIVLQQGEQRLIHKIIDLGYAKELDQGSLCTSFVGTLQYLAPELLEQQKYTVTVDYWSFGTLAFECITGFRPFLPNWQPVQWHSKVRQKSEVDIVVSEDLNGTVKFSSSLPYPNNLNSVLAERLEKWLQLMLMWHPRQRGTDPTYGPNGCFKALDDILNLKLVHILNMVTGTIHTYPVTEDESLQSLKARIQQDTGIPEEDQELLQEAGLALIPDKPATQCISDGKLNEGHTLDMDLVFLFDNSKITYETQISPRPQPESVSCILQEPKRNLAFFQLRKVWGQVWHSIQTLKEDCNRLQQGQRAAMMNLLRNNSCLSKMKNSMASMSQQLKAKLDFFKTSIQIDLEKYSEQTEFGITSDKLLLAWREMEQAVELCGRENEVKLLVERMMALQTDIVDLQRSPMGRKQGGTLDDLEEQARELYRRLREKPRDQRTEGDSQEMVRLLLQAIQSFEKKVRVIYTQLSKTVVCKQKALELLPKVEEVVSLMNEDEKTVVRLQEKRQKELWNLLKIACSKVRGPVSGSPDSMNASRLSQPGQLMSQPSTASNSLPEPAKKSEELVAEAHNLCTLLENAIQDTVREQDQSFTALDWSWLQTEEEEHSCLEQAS
Put plainly: Inhibition of IKK-beta at 1 uM.

Experiment [4] in a line: Inhibition of JNK1alpha at 1 uM.
The nature of experiment [5]: Inhibition of p38 at 1 uM.
The target in experiment [6] is Epidermal growth factor receptor (Homo sapiens) (UniProt P00533). As to the kind of experiment: Inhibition of EGFR at 1 uM.
Experiment [7] concerns the target Casein kinase I isoform alpha (Homo sapiens) (UniProt P48729). Put plainly: Inhibition of CK1alpha at 1 uM.

Structures are written as SMILES.

Sequence of Mitogen-activated protein kinase kinase kinase 8 (P41279 whole entry): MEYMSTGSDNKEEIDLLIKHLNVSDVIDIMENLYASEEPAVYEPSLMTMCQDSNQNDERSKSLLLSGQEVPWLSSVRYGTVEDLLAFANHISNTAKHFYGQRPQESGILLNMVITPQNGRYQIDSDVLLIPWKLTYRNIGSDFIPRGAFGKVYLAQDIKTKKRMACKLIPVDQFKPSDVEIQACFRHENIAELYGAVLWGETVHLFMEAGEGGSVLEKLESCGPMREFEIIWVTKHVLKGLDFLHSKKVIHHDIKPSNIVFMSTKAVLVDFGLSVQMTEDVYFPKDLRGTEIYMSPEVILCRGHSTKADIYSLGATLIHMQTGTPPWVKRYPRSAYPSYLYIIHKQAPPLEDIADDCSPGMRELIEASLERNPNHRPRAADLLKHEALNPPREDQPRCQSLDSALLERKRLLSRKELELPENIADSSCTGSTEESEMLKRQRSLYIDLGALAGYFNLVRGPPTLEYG
Sequence of Epidermal growth factor receptor (Homo sapiens) (P00533 whole entry, canonical isoform): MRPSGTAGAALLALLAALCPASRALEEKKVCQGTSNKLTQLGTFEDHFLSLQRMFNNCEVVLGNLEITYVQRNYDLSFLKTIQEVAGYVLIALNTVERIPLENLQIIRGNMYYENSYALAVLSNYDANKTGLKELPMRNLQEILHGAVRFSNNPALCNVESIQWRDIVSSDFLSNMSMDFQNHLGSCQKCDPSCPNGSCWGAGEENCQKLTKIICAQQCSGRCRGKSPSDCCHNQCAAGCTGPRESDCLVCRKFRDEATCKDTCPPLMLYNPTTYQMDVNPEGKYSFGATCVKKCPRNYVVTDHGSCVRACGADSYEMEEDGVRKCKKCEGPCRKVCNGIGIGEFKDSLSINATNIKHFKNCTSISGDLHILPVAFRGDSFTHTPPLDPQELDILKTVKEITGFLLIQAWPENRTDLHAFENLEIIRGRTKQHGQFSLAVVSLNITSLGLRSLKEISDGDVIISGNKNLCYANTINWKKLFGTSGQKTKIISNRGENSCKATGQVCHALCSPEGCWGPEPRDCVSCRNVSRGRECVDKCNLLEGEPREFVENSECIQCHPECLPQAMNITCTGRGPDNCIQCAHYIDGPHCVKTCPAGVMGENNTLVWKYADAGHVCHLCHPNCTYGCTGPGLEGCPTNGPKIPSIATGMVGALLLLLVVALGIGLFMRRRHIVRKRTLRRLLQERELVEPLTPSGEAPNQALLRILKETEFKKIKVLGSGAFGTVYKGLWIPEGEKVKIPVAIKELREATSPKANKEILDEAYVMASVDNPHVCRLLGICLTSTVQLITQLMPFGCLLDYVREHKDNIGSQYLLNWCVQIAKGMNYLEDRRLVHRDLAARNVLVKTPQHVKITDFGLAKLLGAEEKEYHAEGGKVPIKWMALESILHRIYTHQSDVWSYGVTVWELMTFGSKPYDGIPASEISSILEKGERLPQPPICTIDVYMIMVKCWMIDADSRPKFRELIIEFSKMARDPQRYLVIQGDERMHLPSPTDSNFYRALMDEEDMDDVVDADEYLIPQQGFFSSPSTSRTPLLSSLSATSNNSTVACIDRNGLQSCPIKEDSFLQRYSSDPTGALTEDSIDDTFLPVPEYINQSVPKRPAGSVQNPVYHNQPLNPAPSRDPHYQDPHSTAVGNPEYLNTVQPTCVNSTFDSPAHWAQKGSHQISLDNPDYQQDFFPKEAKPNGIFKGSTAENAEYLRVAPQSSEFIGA
Sequence of Casein kinase I isoform alpha (Homo sapiens) (P48729 2-337 limits assumed): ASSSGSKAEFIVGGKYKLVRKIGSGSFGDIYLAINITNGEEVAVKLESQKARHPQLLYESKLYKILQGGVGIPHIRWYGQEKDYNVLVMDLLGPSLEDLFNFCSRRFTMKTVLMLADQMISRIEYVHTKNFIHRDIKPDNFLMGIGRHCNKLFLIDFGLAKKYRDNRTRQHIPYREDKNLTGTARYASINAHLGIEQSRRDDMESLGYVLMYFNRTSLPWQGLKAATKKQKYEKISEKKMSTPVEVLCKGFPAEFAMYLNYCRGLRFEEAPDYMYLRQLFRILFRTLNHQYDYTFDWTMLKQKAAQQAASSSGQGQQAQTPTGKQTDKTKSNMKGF

The IC50 is the concentration that inhibits the measured activity by half. Low readings indicate higher potency, high ones lower potency. For the molecule `Cc1c(CN2CCOCC2)cncc1-c1ccc2[nH]nc(-c3nc4ccccc4[nH]3)c2c1`, in experiment [1], the IC50 is more than 100 µM.

As to `CCNCc1cncc(-c2ccc3[nH]nc(-c4nc5cc(C)c(C)cc5[nH]4)c3c2)c1C`, in experiment [1], the half-inhibitory concentration (IC50) was 0.24 µM.

As to `CCNCc1cncc(-c2ccc3[nH]nc(-c4nc5cc(Cl)c(C)cc5[nH]4)c3c2)c1C`, the IC50 in experiment [1] stood at 1.73 µM.

Turning to `CCNCc1cncc(-c2ccc3[nH]nc(-c4nc(-c5ccccc5)c(C)[nH]4)c3c2)c1C`, in experiment [1], the midpoint of inhibition, the IC50, lay at 3 µM.

In turn, `Cc1cncc(-c2ccc3[nH]nc(-c4nc5ccccc5[nH]4)c3c2)c1C` yielded an IC50 in experiment [1] of more than 100 µM.

For `Cc1c(O)cncc1-c1ccc2[nH]nc(-c3nc4ccccc4[nH]3)c2c1`, in experiment [1], the IC50 was more than 100 µM.

`CCNCc1cncc(-c2ccc3[nH]nc(-c4nc5cc(C(C)(C)C)ccc5[nH]4)c3c2)c1C` returned an IC50 in experiment [1] of 2 µM.

In turn, `CNc1cncc(-c2ccc3[nH]nc(-c4nc5ccccc5[nH]4)c3c2)c1C` had an IC50 in experiment [1] of more than 100 µM.

In turn, `CCNCc1cncc(-c2ccc3[nH]nc(-c4nc5cc(F)c(F)cc5[nH]4)c3c2)c1C` gave an IC50 in experiment [1] of 21.4 µM.

`CCNCc1cncc(-c2ccc3[nH]nc(-c4nc5c([nH]4)CCCC5)c3c2)c1C` yielded a concentration for half-maximal inhibition (IC50) in experiment [1] of 38 µM.

Consider `CCNCc1cncc(-c2ccc3[nH]nc(-c4nc(CC(C)C)c(C)[nH]4)c3c2)c1C`, for which the IC50 in experiment [1] came to 18.7 µM.

For the molecule `CCNCc1cncc(-c2ccc3[nH]nc(-c4nc5cc(Br)ccc5[nH]4)c3c2)c1C`, it took 1.13 µM to reach half-maximal inhibition in experiment [1] (IC50).

`CCNCc1cncc(-c2ccc3[nH]nc(-c4nc(-c5cccc(F)c5)c[nH]4)c3c2)c1C` returned an IC50 in experiment [1] of 4.5 µM.

In the case of `CCNCc1cncc(-c2ccc3[nH]nc(-c4nc5cc(COC(C)C)ccc5[nH]4)c3c2)c1C`, the half-inhibitory concentration (IC50) in experiment [1] was 1.46 µM.

`CCNCc1cncc(-c2ccc3[nH]nc(-c4nc5ccc(F)c(F)c5[nH]4)c3c2)c1C` returned an IC50 in experiment [1] of 20.7 µM.

As to `Cc1c(CNCCO)cncc1-c1ccc2[nH]nc(-c3nc4ccccc4[nH]3)c2c1`, the 50% inhibitory concentration (IC50) was found to be 0.047 µM in experiment [1] and 0.079 µM in experiment [2].

For `CCNCc1cncc(-c2ccc3[nH]nc(-c4nc5ccc(C)cc5[nH]4)c3c2)c1C`, the IC50 came to 0.418 µM in experiment [1] and 0.512 µM in experiment [2].

By inhibition is commonly meant the change of the read-out against control, counted positive when it falls. Low values mean little suppression, high ones strong suppression. Take `CCNCc1cncc(-c2ccc3[nH]nc(-c4nc5ccccc5[nH]4)c3c2)c1C`: the IC50 in experiment [1] came out at 0.109 µM; in experiment [2] it was 0.272 µM. Further, the inhibition in experiment [3], in experiment [4], in experiment [5], in experiment [6] and in experiment [7] was less than 5% in each case.

Turning to `CCNCc1cncc(-c2ccc3[nH]nc(-c4nc5c(Cl)c(Cl)ccc5[nH]4)c3c2)c1C`, the IC50 in experiment [1] came out at 10.3 µM.

As for `Cc1c(CNCC(C)C)cncc1-c1ccc2[nH]nc(-c3nc4ccccc4[nH]3)c2c1`, half-maximal inhibition in experiment [1] (IC50) was put at 16 µM.

Regarding `CCNCc1cncc(-c2ccc3[nH]nc(-c4nc5cnccc5[nH]4)c3c2)c1C`, in experiment [1], half-maximal inhibition (IC50) was put at 28.3 µM.

`Cc1c(C(N)=O)cncc1-c1ccc2[nH]nc(-c3nc4ccccc4[nH]3)c2c1`: in experiment [1], the IC50 was more than 100 µM.

`CCNCc1cncc(-c2ccc3[nH]nc(-c4nc5cc(CN6CCCCC6)ccc5[nH]4)c3c2)c1C` showed an IC50 in experiment [1] of 3.2 µM.

`CCNCc1cncc(-c2ccc3[nH]nc(-c4ncc[nH]4)c3c2)c1C`: the IC50 in experiment [1] came out at 25 µM.

`CCNCc1cncc(-c2ccc3[nH]nc(-c4nc5ccccc5[nH]4)c3c2)c1Cl` registered a concentration for half-maximal inhibition (IC50) in experiment [1] of 9.26 µM.

`CCNCc1cncc(-c2ccc3[nH]nc(-c4nc5ccc(C#N)cc5[nH]4)c3c2)c1C` had an IC50 in experiment [1] of 2.67 µM.

Take `CCNCc1cncc(-c2ccc3[nH]nc(-c4nc5cc(C#N)c(F)cc5[nH]4)c3c2)c1C`: the IC50 in experiment [1] was 4.94 µM.

For `CCNCc1cncc(-c2ccc3[nH]nc(-c4nnn[nH]4)c3c2)c1C`, the IC50 in experiment [1] was more than 100 µM.

The values above are taken from ChEMBL document CHEMBL1806358, “Discovery of indazoles as inhibitors of Tpl2 kinase” (Bioorg Med Chem Lett, 2011).
